From patent US20220061324A1, “PESTICIDALLY ACTIVE HETEROCYCLIC DERIVATIVES WITH SULFUR CONTAINING SUBSTITUENTS” (SYNGENTA CROP PROTECTION AG, priority 2018, published 2022)
Like-named read-outs stand apart in the source and are kept apart here.

Experiments:
Format in all cases: in vivo
[1] = system: Myzus persicae (Green Peach Aphid); test: Activity against Myzus persicae (green peach aphid), feeding/contact activity; conditions: 144 h
Protocol: Example B4: Activity Against Myzus persicae (Green Peach Aphid) Feeding/Contact Activity
Sunflower leaf discs were placed onto agar in a 24-well microtiter plate and sprayed with aqueous test solutions prepared from 10,000 ppm DMSO stock solutions. After drying, the leaf discs were infested with an aphid population of mixed ages. The samples were assessed for mortality 6 days after infestation.

[2] = system: Diabrotica balteata (Corn Root Worm); test: Activity against Diabrotica balteata (corn root worm), maize sprouts sprayed; conditions: 96 h, read-out: effect in at least one of the two categories (mortality or growth inhibition); for percent effect (mortality or growth inhibition) at 200 ppm: application rate 200 ppm, L2 larvae, 4 days after infestation
Protocol: Example B1: Activity Against Diabrotica balteata (Corn Root Worm)
Maize sprouts placed onto an agar layer in 24-well microtiter plates were treated with aqueous test solutions prepared from 10,000 ppm DMSO stock solutions by spraying. After drying, the plates were infested with L2 larvae (6 to 10 per well). The samples were assessed for mortality and growth inhibition in comparison to untreated samples 4 days after infestation.

[3] = system: Spodoptera littoralis (Egyptian Cotton Leaf Worm); test: Activity against Spodoptera littoralis (Egyptian cotton leaf worm), cotton leaf discs; conditions: foliar, 72 h, read-out: control (mortality, anti-feedant effect or growth inhibition)
Protocol: Example B5: Activity Against Spodoptera littoralis (Egyptian Cotton Leaf Worm)
Cotton leaf discs were placed onto agar in 24-well microtiter plates and sprayed with aqueous test solutions prepared from 10,000 ppm DMSO stock solutions. After drying the leaf discs were infested with five L1 larvae. The samples were assessed for mortality, anti-feeding effect, and growth inhibition in comparison to untreated samples 3 days after infestation. Control of Spodoptera littoralis by a test sample is given when at least one of the categories mortality, anti-feedant effect, and growth inhibition is higher than the untreated sample.

[4] = system: Plutella xylostella (Diamond Back Moth); test: Activity against Plutella xylostella (diamond back moth), artificial diet; conditions: 192 h, read-out: effect in at least one of the two categories (mortality or growth inhibition); for percent effect (mortality or growth inhibition) at 200 ppm: application rate 200 ppm, eggs, 8 days after infestation
Protocol: Example B3: Activity Against Plutella xylostella (Diamond Back Moth)
24-well microtiter plates with artificial diet were treated with aqueous test solutions prepared from 10,000 ppm DMSO stock solutions by pipetting. After drying, Plutella eggs were pipetted through a plastic stencil onto a gel blotting paper and the plate was closed with it. The samples were assessed for mortality and growth inhibition in comparison to untreated samples 8 days after infestation.

[5] = system: Euschistus heros (Neotropical Brown Stink Bug); test: Activity against Euschistus heros (neotropical brown stink bug), soybean leaves sprayed; conditions: 120 h, read-out: effect in at least one of the two categories (mortality or growth inhibition); for percent effect (mortality or growth inhibition) at 200 ppm: application rate 200 ppm, N2 nymphs, 5 days after infestation
Protocol: Example B2: Activity Against Euschistus heros (Neotropical Brown Stink Bug)
Soybean leaves on agar in 24-well microtiter plates were sprayed with aqueous test solutions prepared from 10,000 ppm DMSO stock solutions. After drying the leaves were infested with N2 nymphs. The samples were assessed for mortality and growth inhibition in comparison to untreated samples 5 days after infestation.

[6] = application rate 200 ppm, feeding/contact, mixed ages, 6 days after infestation, read-out: mortality
[7] = application rate 200 ppm, L1 larvae, 3 days after infestation

CCS(=O)(=O)c1cccnc1-c1ncc2c(OCC(F)(F)C(F)F)nccn12 [Compound P6, 3-(3-ethylsulfonyl-2-pyridyl)-8-(2,2,3,3-tetrafluoropropoxy)imi-dazo[1,5-a]pyrazine]
≥ 80%: mortality at 200 ppm [1] | percent control (mortality or growth inhibition) at 200 ppm [2] | percent control (mortality, anti-feedant effect or growth inhibition) at 200 ppm [3] | percent control (mortality or growth inhibition) at 200 ppm [4]

CCS(=O)(=O)c1cccnc1-c1ncc2c(OCC(F)(F)C(F)(F)F)nccn12 [Compound P8, 3-(3-ethylsulfonyl-2-pyridyl)-8-(2,2,3,3,3-pentafluoropropoxy)imi-dazo[1,5-a]pyrazine]
≥ 80%: percent control (mortality or growth inhibition) at 200 ppm [5] | mortality at 200 ppm [1] | percent control (mortality or growth inhibition) at 200 ppm [2] | percent control (mortality, anti-feedant effect or growth inhibition) at 200 ppm [3] | percent control (mortality or growth inhibition) at 200 ppm [4]

CCS(=O)(=O)c1ccc(NC)nc1-c1ncc2c(OCC(F)(F)C(F)(F)F)nccn12 [Compound P10, 5-ethylsulfonyl-N-methyl-6-[8-(2,2,3,3,3-penta-fluoropropoxy)imidazo [1,5-a]pyrazin-3-yl]pyri-din-2-amine]
≥ 80%: percent effect (mortality or growth inhibition) at 200 ppm [5] | mortality at 200 ppm [1, 6] | percent effect (mortality or growth inhibition) at 200 ppm [2] | percent control (mortality, anti-feedant effect or growth inhibition) at 200 ppm [3, 7] | percent effect (mortality or growth inhibition) at 200 ppm [4]

CCS(=O)(=O)c1ccc(N(C)C(=O)NC)nc1-c1ncc2c(OCC(F)(F)C(F)(F)F)nccn12 [Compound P14, 1-[5-ethylsulfonyl-6-[8-(2,2,3,3,3-penta-fluoropropoxy)imidazo [1,5-a]pyrazin-3-yl]-2-pyridyl]-1,3-dimethyl-urea]
≥ 80%: mortality at 200 ppm [1, 6] | percent effect (mortality or growth inhibition) at 200 ppm [2] | percent control (mortality, anti-feedant effect or growth inhibition) at 200 ppm [3, 7] | percent effect (mortality or growth inhibition) at 200 ppm [4]

CCS(=O)(=O)c1cc(C2(C#N)CC2)cnc1-c1ncc2c(OCC(F)(F)C(F)(F)F)nccn12 [Compound P15, 1-[5-ethylsulfonyl-6-[8-(2,2,3,3,3-penta-fluoropropoxy)imidazo [1,5-a]pyrazin-3-yl]-3-pyridyl]cyclopropane-carbonitrile]
≥ 80%: percent effect (mortality or growth inhibition) at 200 ppm [5] | mortality at 200 ppm [1, 6] | percent effect (mortality or growth inhibition) at 200 ppm [2] | percent control (mortality, anti-feedant effect or growth inhibition) at 200 ppm [3, 7] | percent effect (mortality or growth inhibition) at 200 ppm [4]

CCS(=O)(=O)c1cc(C(C)(C)C#N)cnc1-c1ncc2c(OCC(F)(F)C(F)(F)F)nccn12 [Compound P16, 2-[5-ethylsulfonyl-6-[8-(2,2,3,3,3-penta-fluoropropoxy)imidazo [1,5-a]pyrazin-3-yl]-3-pyridyl]-2-methyl-propanenitrile]
≥ 80%: mortality at 200 ppm [1, 6] | percent effect (mortality or growth inhibition) at 200 ppm [2] | percent control (mortality, anti-feedant effect or growth inhibition) at 200 ppm [3, 7] | percent effect (mortality or growth inhibition) at 200 ppm [4]

CCS(=O)(=O)c1cc(Oc2ccccn2)cnc1-c1ncc2c(OCC(F)(F)C(F)(F)F)nccn12 [Compound P19, 3-[3-ethylsulfonyl-5-(2-pyridyloxy)-2-pyridyl]-8-(2,2,3,3,3-penta-fluoropropoxy)imidazo [1,5-a]pyrazine]
≥ 80%: percent effect (mortality or growth inhibition) at 200 ppm [5] | mortality at 200 ppm [1, 6] | percent effect (mortality or growth inhibition) at 200 ppm [2] | percent control (mortality, anti-feedant effect or growth inhibition) at 200 ppm [3, 7] | percent effect (mortality or growth inhibition) at 200 ppm [4]

CCS(=O)(=O)c1cc(C2CC2)cnc1-c1ncc2c(OCC(F)(F)C(F)(F)F)nccn12 [Compound P21, 3-(5-cyclopropyl-3-ethylsulfonyl-2-pyridyl)-8-(2,2,3,3,3-penta-fluoropropoxy)imidazo [1,5-a]pyrazine]
≥ 80%: percent effect (mortality or growth inhibition) at 200 ppm [5] | mortality at 200 ppm [1, 6] | percent effect (mortality or growth inhibition) at 200 ppm [2] | percent control (mortality, anti-feedant effect or growth inhibition) at 200 ppm [3, 7] | percent effect (mortality or growth inhibition) at 200 ppm [4]

CCS(=O)(=O)c1ccc(NC)nc1-c1ncc2c(OCC(F)(F)C(F)(F)F)cccn12 [Compound P31, 5-ethylsulfonyl-N-methyl-6-[8-(2,2,3,3,3-penta-fluoropropoxy)imidazo [1,5-a]pyridin-3-yl]pyri-din-2-amine]
≥ 80%: mortality at 200 ppm [1, 6] | percent effect (mortality or growth inhibition) at 200 ppm [2] | percent control (mortality, anti-feedant effect or growth inhibition) at 200 ppm [3, 7] | percent effect (mortality or growth inhibition) at 200 ppm [4]

CCS(=O)(=O)c1cc(C2(C#N)CC2)cnc1-c1ncc2c(OCC(F)(F)C(F)(F)F)cccn12 [Compound P35, 1-[5-ethylsulfonyl-6-[8-(2,2,3,3,3-penta-fluoropropoxy)imidazo [1,5-a]pyridin-3-yl]-3-pyridyl]cyclopropane-carbonitrile]
≥ 80%: percent effect (mortality or growth inhibition) at 200 ppm [5] | percent effect (mortality or growth inhibition) at 200 ppm [2] | percent control (mortality, anti-feedant effect or growth inhibition) at 200 ppm [3, 7] | percent effect (mortality or growth inhibition) at 200 ppm [4]

CCS(=O)(=O)c1cc(Oc2ccccn2)cnc1-c1ncc2c(OCC(F)(F)C(F)(F)F)cccn12 [Compound P36, 3-[3-ethylsulfonyl-5-(2-pyridyloxy)-2-pyridyl]-8-(2,2,3,3,3-penta-fluoropropoxy)imidazo [1,5-a]pyridine]
≥ 80%: percent effect (mortality or growth inhibition) at 200 ppm [5] | mortality at 200 ppm [1, 6] | percent effect (mortality or growth inhibition) at 200 ppm [2] | percent effect (mortality or growth inhibition) at 200 ppm [4]

CCS(=O)(=O)c1cc(N(C)C(C)=O)cnc1-c1ncc2c(OCC(F)(F)C(F)(F)F)cccn12 [Compound P39, N-[5-ethylsulfonyl-6-[8-(2,2,3,3,3-penta-fluoropropoxy)imidazo [1,5-a]pyridin-3-yl]-3-pyridyl]-N-methyl-acetamide]
≥ 80%: percent effect (mortality or growth inhibition) at 200 ppm [5] | mortality at 200 ppm [1, 6] | percent effect (mortality or growth inhibition) at 200 ppm [4]

CCS(=O)(=O)c1cc(N=S(C)(C)=O)cnc1-c1ncc2c(OCC(F)(F)C(F)(F)F)cccn12 [Compound P45, [5-ethylsulfonyl-6-[8-(2,2,3,3,3-penta-fluoropropoxy)imidazo [1,5-a]pyridin-3-yl]-3-pyridyl]imino-dimethyl-oxo-λ^6-sulfane]
≥ 80%: percent effect (mortality or growth inhibition) at 200 ppm [5] | mortality at 200 ppm [1, 6] | percent effect (mortality or growth inhibition) at 200 ppm [4]

CCS(=O)(=O)c1cc(OC(C)(C)C#N)cnc1-c1ncc2c(OCC(F)(F)C(F)(F)F)cccn12 [Compound P47, 2-[[5-ethylsulfonyl-6-[8-(2,2,3,3,3-penta-fluoropropoxy)imidazo [1,5-a]pyridin-3-yl]-3-pyridyl]oxy]-2-methyl-propanenitrile]
≥ 80%: percent effect (mortality or growth inhibition) at 200 ppm [5] | mortality at 200 ppm [1, 6] | percent effect (mortality or growth inhibition) at 200 ppm [2] | percent effect (mortality or growth inhibition) at 200 ppm [4]

CCSc1cc(OC(C)(C)C#N)cnc1-c1ncc2c(OCC(F)(F)C(F)(F)F)nccn12 [Compound P50, 2-[[5-ethylsulfanyl-6-[8-(2,2,3,3,3-penta-fluoropropoxy)imidazo [1,5-a]pyrazin-3-yl]-3-pyridyl]oxy]-2-methyl-propanenitrile]
≥ 80%: percent effect (mortality or growth inhibition) at 200 ppm [5] | percent effect (mortality or growth inhibition) at 200 ppm [2] | percent control (mortality, anti-feedant effect or growth inhibition) at 200 ppm [3, 7] | percent effect (mortality or growth inhibition) at 200 ppm [4]
